The target in the assay is GLP-1 Receptor (Homo sapiens, UniProt P43220). Put plainly: GLP-1R agonist cAMP stimulation assay (HEK293/GLP1R/CRE-LUC cells, cAMP dynamic 2 Kit). The settings on record: HEK293/CRE-Luc cell line stably expressing the GLP-1 Receptor, 30 min at 37° C. In kind it is cell-based. The method, boiled down:
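cAMP measured by HTRF competition (d2-labelled cAMP with cryptate antibody, 1 h, room temperature, protected from light). Before that, GLP1R/CRE-Luc HEK293 cells (1000/well) were exposed for 30 min at 37 °C to half-log compound dilutions in DPBS containing IBMX 0.5 mM and BSA 0.1%.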
Sequence of GLP-1 Receptor (P43220 24-463, species assumed): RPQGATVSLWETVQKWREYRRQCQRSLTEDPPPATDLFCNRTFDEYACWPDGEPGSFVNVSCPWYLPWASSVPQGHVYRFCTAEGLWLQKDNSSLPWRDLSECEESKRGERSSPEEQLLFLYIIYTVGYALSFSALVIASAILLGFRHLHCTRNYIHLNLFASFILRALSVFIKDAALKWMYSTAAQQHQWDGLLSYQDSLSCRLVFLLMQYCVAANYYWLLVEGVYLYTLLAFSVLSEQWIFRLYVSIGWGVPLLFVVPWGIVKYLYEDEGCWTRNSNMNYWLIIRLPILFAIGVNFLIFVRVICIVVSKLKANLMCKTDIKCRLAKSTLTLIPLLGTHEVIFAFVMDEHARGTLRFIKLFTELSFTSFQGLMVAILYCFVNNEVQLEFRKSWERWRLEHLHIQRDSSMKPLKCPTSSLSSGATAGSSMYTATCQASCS
`CC1(c2ccc(C#N)cc2F)Oc2cccc(C3CCN(Cc4nc5cc(-c6nnc(C7CC7)[nH]6)ccc5n4C[C@@H]4CCO4)CC3)c2O1` (stereo partly drawn) [Compound 277a, 4-[4-(1-{[5-(5-cyclopropyl-4H-1,2,4-triazol-3-yl)-1-{[(2S)-oxetan-2-yl]methyl}-1H-1,3-benzodiazol-2-yl]methyl}piperidin-4-yl)-2-methyl-2H-1,3-benzodioxol-2-yl]-3-fluorobenzonitrile] returned an EC50 of 0.15 nM.
For the compound `CC1(c2ccc(Cl)cc2)Oc2cccc(C3CCN(Cc4nc5cc(-c6noc(=O)[nH]6)cnc5n4C[C@@H]4CCO4)CC3)c2O1` (stereo partly drawn) [Compound 330a, 3-[2-({4-[2-(4-chlorophenyl)-2-methyl-2H-1,3-benzodioxol-4-yl]piperidin-1-yl}methyl)-3-{[(2S)-oxetan-2-yl]methyl}-3H-imidazo[4,5-b]pyridin-6-yl]-4,5-dihydro-1,2,4-oxadiazol-5-one], the EC50 is 0.97 nM.
In the case of `O=C(Nc1ccc2c(c1)nc(CN1CCC(c3cccc(OCc4ccc(Cl)cc4F)n3)CC1)n2C[C@@H]1CCO1)C1CCS(=O)(=O)CC1` [Compound 156a, N-{2-[(4-{6-[(4-chloro-2-fluorophenyl)methoxy]pyridin-2-yl}piperidin-1-yl)methyl]-1-{[(2S)-oxetan-2-yl]methyl}-1H-1,3-benzodiazol-5-yl}-1,1-dioxo-1λ^6-thiane-4-carboxamide], a half-maximal response (EC50) required 3 nM.
Consider `O=C(Nc1ccc2c(c1)nc(CN1CCC(c3cccc(OCc4ccc(Cl)cc4F)n3)CC1)n2C[C@@H]1CCO1)C1CCC2(CCC2)CO1` (stereo partly drawn) [Compound 197a, N-{2-[(4-{6-[(4-chloro-2-fluorophenyl)methoxy]pyridin-2-yl}piperidin-1-yl)methyl]-1-{[(2S)-oxetan-2-yl]methyl}-1H-1,3-benzodiazol-5-yl}-6-oxaspiro[3.5]nonane-7-carboxamide], for which a half-maximal effect (EC50) was put at 4.3 nM.
The figure for `O=C(CC(F)(F)F)Nc1ccc2c(c1)nc(CN1CCC(c3cccc(OCc4ccc(Cl)cc4F)n3)CC1)n2C[C@@H]1CCO1` [Compound 150a, N-{2-[(4-{6-[(4-chloro-2-fluorophenyl)methoxy]pyridin-2-yl}piperidin-1-yl)methyl]-1-{[(2S)-oxetan-2-yl]methyl}-1H-1,3-benzodiazol-5-yl}-3,3,3-trifluoropropanamide] is 0.61 nM; for `O=C(Nc1ccc2c(c1)nc(CN1CCC(c3cccc(OCc4ccc(Cl)cc4F)n3)CC1)n2C[C@@H]1CCO1)c1ccc(C2CC2)nc1` [Compound 176a, N-{2-[(4-{6-[(4-chloro-2-fluorophenyl)methoxy]pyridin-2-yl}piperidin-1-yl)methyl]-1-{[(2S)-oxetan-2-yl]methyl}-1H-1,3-benzodiazol-5-yl}-6-cyclopropylpyridine-3-carboxamide] it is 8.6 nM.
The compound `N#Cc1cccc(C(=O)Nc2ccc3c(c2)nc(CN2CCC(c4cccc(OCc5ccc(Cl)cc5F)n4)CC2)n3C[C@@H]2CCO2)c1` [Compound 169a, N-{2-[(4-{6-[(4-chloro-2-fluorophenyl)methoxy]pyridin-2-yl}piperidin-1-yl)methyl]-1-{[(2S)-oxetan-2-yl]methyl}-1H-1,3-benzodiazol-5-yl}-3-cyanobenzamide] displayed an EC50 of 0.92 nM.
The compound `CC1(c2ccc(Cl)cn2)Oc2cccc(C3CCN(Cc4nc5cc(-c6nnc(C(F)(F)F)[nH]6)ncc5n4C[C@@H]4CCCO4)CC3)c2O1` (stereo partly drawn) [Compound 425a, 5-chloro-2-(2-methyl-4-{1-[(3-{[(2S)-oxolan-2-yl]methyl}-6-[5-(trifluoromethyl)-4H-1,2,4-triazol-3-yl]-3H-imidazo[4,5-c]pyridin-2-yl)methyl]piperidin-4-yl}-2H-1,3-benzodioxol-2-yl)pyridine] came in with an EC50 of 0.13 nM.
The result for `C[C@]1(c2ccc(Cl)cc2F)Oc2cccc(C3CCN(Cc4nc5cc(-c6nnc(C7CC7)[nH]6)cnc5n4C[C@@H]4CCO4)CC3)c2O1` [Compound 282a, 4-[(2S)-2-(4-chloro-2-fluorophenyl)-2-methyl-2H-1,3-benzodioxol-4-yl]-1-{[6-(5-cyclopropyl-4H-1,2,4-triazol-3-yl)-3-{[(2S)-oxetan-2-yl]methyl}-3H-imidazo[4,5-b]pyridin-2-yl]methyl}piperidine] reads 0.45 nM.
Take `CC1(c2ccc(Cl)cn2)Oc2cccc(C3CCN(Cc4nc5cc(-c6n[nH]c(C(F)(F)F)n6)ncc5n4C[C@@H]4CCO4)CC3)c2O1` (stereo partly drawn) [Compound 344a, 5-chloro-2-(2-methyl-4-{1-[(3-{[(2S)-oxetan-2-yl]methyl}-6-[5-(trifluoromethyl)-4H-1,2,4-triazol-3-yl]-3H-imidazo[4,5-c]pyridin-2-yl)methyl]piperidin-4-yl}-2H-1,3-benzodioxol-2-yl)pyridine]: it took 0.022 nM to reach a half-maximal effect (EC50).
The result for `CCC(=O)Nc1ccc2c(c1)nc(CN1CCC(c3cccc(OCc4ccc(Cl)cc4F)n3)CC1)n2C[C@@H]1CCO1` [Compound 102a, (S)—N-(2-((4-(6-((4-chloro-2-fluorobenzyl)oxy)pyridin-2-yl)piperidin-1-yl)methyl)-1-(oxetan-2-ylmethyl)-1H-benzo[d]imidazol-5-yl)propionamide] reads 0.539 nM.
The compound `CC1(c2ccc(Cl)cc2F)Oc2cccc(C3CCN(Cc4nc5cc(-c6nnc(C(F)(F)F)[nH]6)cnc5n4C[C@@H]4CCCO4)CC3)c2O1` (stereo partly drawn) [Compound 246a, 4-[2-(4-chloro-2-fluorophenyl)-2-methyl-2H-1,3-benzodioxol-4-yl]-1-[(3-{[(2S)-oxolan-2-yl]methyl}-6-[5-(trifluoromethyl)-4H-1,2,4-triazol-3-yl]-3H-imidazo[4,5-b]pyridin-2-yl)methyl]piperidine] showed an EC50 of 0.23 nM.
Compound `Cc1nnc(-c2cc3nc(CN4CCC(c5cccc6c5OC[C@@H](c5ccc(Cl)cc5)O6)CC4)n(C[C@@H]4CCO4)c3cn2)[nH]1` [Compound 424a, 4-[(2R)-2-(4-chlorophenyl)-2,3-dihydro-1,4-benzodioxin-5-yl]-1-{[6-(5-methyl-4H-1,2,4-triazol-3-yl)-3-{[(2S)-oxetan-2-yl]methyl}-3H-imidazo[4,5-c]pyridin-2-yl]methyl}piperidine] yielded an EC50 of 0.13 nM.
The result for `Cn1cc(-c2ccc3c(c2)nc(CN2CCC(c4cccc5c4OC(C)(c4ccc(Cl)cc4F)O5)CC2)n3C[C@@H]2CCO2)nn1` (stereo partly drawn) [Compound 238a, 2-((4-(2-(4-chloro-2-fluorophenyl)-2-methylbenzo[d][1,3]dioxol-4-yl)piperidin-1-yl)methyl)-5-(1-methyl-1H-1,2,3-triazol-4-yl)-1-(((S)-oxetan-2-yl)methyl)-1H-benzo[d]imidazole] reads 0.12 nM.
`CC1(c2ccc(Cl)cc2F)Oc2cccc(C3CCN(Cc4nc5cc(-c6nnc(C(F)(F)F)[nH]6)ccc5n4C[C@@H]4CCO4)CC3)c2O1` (mixture of isomers) [Compound 229a, 2-({4-[2-(4-chloro-2-fluorophenyl)-2-methyl-2H-1,3-benzodioxol-4-yl]piperidin-1-yl}methyl)-1-{[(2S)-oxetan-2-yl]methyl}-5-[5-(trifluoromethyl)-4H-1,2,4-triazol-3-yl]-1H-1,3-benzodiazole] registered an EC50 of 0.046 nM.
The compound `C[C@]1(c2ccc(Cl)cc2F)Oc2cccc(C3CCN(Cc4nc5cc(-c6nnc(C7CC7)[nH]6)ccc5n4C[C@@H]4CCO4)CC3)c2O1` [Compound 283a, 2-({4-[(2S)-2-(4-chloro-2-fluorophenyl)-2-methyl-2H-1,3-benzodioxol-4-yl]piperidin-1-yl}methyl)-5-(5-cyclopropyl-4H-1,2,4-triazol-3-yl)-1-{[(2S)-oxetan-2-yl]methyl}-1H-1,3-benzodiazole] registered a concentration giving a half-maximal response (EC50) of 0.1 nM.
In turn, `CC1(c2ccc(Cl)cc2F)Oc2cccc(C3CCN(Cc4nc5cc(-c6nc(Br)ns6)ccc5n4C[C@@H]4CCO4)CC3)c2O1` (stereo partly drawn) [Compound 409a, 5-(3-bromo-1,2,4-thiadiazol-5-yl)-2-({4-[2-(4-chloro-2-fluorophenyl)-2-methyl-2H-1,3-benzodioxol-4-yl]piperidin-1-yl}methyl)-1-{[(2S)-oxetan-2-yl]methyl}-1H-1,3-benzodiazole] returned an EC50 of 6.5 nM.
The result for `CC1(c2ccc(Cl)cn2)Oc2cccc(C3CCN(Cc4nc5cc(-c6nnn[nH]6)ncc5n4C[C@@H]4CCO4)CC3)c2O1` (stereo partly drawn) [Compound 450a, 5-chloro-2-(2-methyl-4-{1-[(3-{[(2S)-oxetan-2-yl]methyl}-6-(1H-1,2,3,4-tetrazol-5-yl)-3H-imidazo[4,5-c]pyridin-2-yl)methyl]piperidin-4-yl}-2H-1,3-benzodioxol-2-yl)pyridine] reads 0.062 nM; that for `Cc1ccc(COc2cccc(C3CCN(Cc4nc5cc(-c6nnc(C(F)(F)F)[nH]6)ncc5n4C[C@@H]4CCO4)CC3)n2)c(F)c1` [Compound 496a, 2-[(2-fluoro-4-methylphenyl)methoxy]-6-{1-[(3-{[(2S)-oxetan-2-yl]methyl}-6-[5-(trifluoromethyl)-4H-1,2,4-triazol-3-yl]-3H-imidazo[4,5-c]pyridin-2-yl)methyl]piperidin-4-yl}pyridine], 0.017 nM; that for `CC(=O)Nc1ccc2c(c1)nc(CN1CCC(c3cccc4c3OC[C@@H](c3ccc(Cl)cc3F)O4)CC1)n2C[C@@H]1CCO1` [Compound 114a, N-(2-((4-((R)-2-(4-chloro-2-fluorophenyl)-2,3-dihydrobenzo[b][1,4]dioxin-5-yl)piperidin-1-yl)methyl)-1-(((S)-oxetan-2-yl)methyl)-1H-benzo[d]imidazol-5-yl)acetamide], 58.9 nM.
The figure for `O=C(Nc1ccc2c(c1)nc(CN1CCC(c3cccc(OCc4ccc(Cl)cc4F)n3)CC1)n2C[C@@H]1CCO1)c1ccc(F)cn1` [Compound 190a, N-{2-[(4-{6-[(4-chloro-2-fluorophenyl)methoxy]pyridin-2-yl}piperidin-1-yl)methyl]-1-{[(2S)-oxetan-2-yl]methyl}-1H-1,3-benzodiazol-5-yl}-5-fluoropyridine-2-carboxamide] is 1.2 nM.

The values are drawn from patent US20230391760A1, “HETEROCYCLIC GLP-1 AGONISTS” (Gasherbrum Bio, Inc., priority 2020, published 2023).
